The values below come from PMC8803428, “Pharmacokinetics of Ginsenoside Rb1, Rg3, Rk1, Rg5, F2, and Compound K from Red Ginseng Extract in Healthy Korean Volunteers” (Evidence-based Complementary and Alternative Medicine : eCAM, 2022).

A short description of data set [1]: Pharmacokinetics of ginsenosides in plasma after a single oral dose of RG or BRG capsules in healthy Korean men (LC-MS/MS). It is filed as in vivo, human. Conditions: for half-life: T 1/2; for Tmax: T max. The source says: This study was designed as a randomized, open-label, single-dose, crossover study with washout every 1 week to evaluate the pharmacokinetics and safety of ginsenosides. Subjects were randomly assigned to either the RG or BRG group during the first period of the study (Figure 2). After 1 week of the washout period, other products that were not received in the first period were provided. All enrolled subjects were hospitalized at Bestian Clinical Trial Center on the day before taking RG or BRG. Subjects were provided regular meals, and additional food intake was restricted after the meal. The next day, the subjects who had maintained the fasting state for 10 h took the capsules corresponding to 5 g of RG and BRG orally. Water was restricted for 1 h before and after intake, and food intake was restricted for 4 h after administration. After 4 h, all subjects received a standardized meal. In addition, lying down or sleeping was prohibited for 8 h after oral administration. Blood samples (5 mL) were collected before dosing and at each time point (0, 0.5, 1, 2, 4, 6, 8, 10, 12, and 24 h) after dosing. All blood samples were collected in heparin-treated tubes. The blood samples were promptly centrifuged at 3,000 rpm for 10 min at 4°C, and the plasma samples obtained were stored in a deep freezer at −70 ± 10°C until assay.
All analyses were performed using an Agilent 1200 series HPLC system (Agilent) with a Luna Phenyl-Hexyl column (2.0 × 150 mm, 5 μm; Phenomenex, CA, USA). The mobile phase comprised water (solvent A) and acetonitrile (solvent B) containing 0.1% formic acid. The flow rate of the mobile phase was 0.25–0.35 mL/min. The initial condition of 70% solvent A was set to 5% solvent A over 15 min. The content of ginsenosides in human plasma was measured using an API 5500 mass spectrometer (AB Sciex, Foster City, CA, USA) capable of multiple reaction monitoring (MRM). The parent-daughter ion pairs monitored were 845.5 ⟶ 799.6 for Rg1, 1153.6 ⟶ 1107.5 for Rb1, 829.4 ⟶ 783.5 for Rg3, and F2, 811.4 ⟶ 161.0 for Rg5 and Rk1, 667.4 ⟶ 161.0 for CK, and 825.4 ⟶ 779.3 for digoxin as an IS in the negative ion mode. Nitrogen gas was used in the nebulizer and the collision cell. The ion spray voltage was set to 5500 V.
Standard plasma samples were prepared such that each ginsenoside was in the concentration range of 0.5–100 ng/mL; 10 μL of a standard mixture of six kinds of ginsenosides (Rg1, Rb1, Rg5 + Rk1, F2, and CK) was added to 90 μL of blank human plasma. Rg3 was prepared in the concentration range of 0.2–40 ng/mL. Standard plasma samples (100 μL) were added to 200 μL of methanol containing 50 ng/mL digoxin, an IS. These were mixed for 1 min and then centrifuged at 12,000 rpm for 5 min at 4°C. Then, 100 μL of the supernatant was transferred to an LC vial, and 10 μL was injected into the LC-MS/MS system. Plasma samples stored at −70°C were thawed at room temperature. Samples for LC-MS/MS analysis were pretreated in the same manner as standard plasma samples.
Plasma concentrations of seven ginsenosides were calculated from calibration curves by calculating the ratio of the peak area of the test substance to the peak area of the IS. The following pharmacokinetic parameters were measured using Phoenix WinNonlin 6.3 (Pharsight Co, CA, USA): time to reach maximum observed plasma drug concentration (Tmax), maximum observed plasma drug concentration (Cmax), area under the plasma drug concentration-time curve from 0 h to the final measured time (AUC(0–t)), area under the plasma drug concentration–time curve from 0 h to infinity (AUC(0–∞)), and terminal elimination half-life (t1/2).

Data set [2] can be described thus: Stability of the ginsenosides in human plasma (QC samples, LC-MS/MS method validation). The class given is in vitro ADME. Particulars: human; for Short-term stability, concentration found: 19 h; for Autosampler stability, concentration found: 34 h; for Long-term stability, concentration found: 50 days. As for the experimental part: The LC-MS/MS method was validated to determine selectivity, lower limits of quantification (LLOQ), accuracy, precision, recovery, matrix effect, and stability, according to the guideline for validating the bioanalytical method. The selectivity of the method was evaluated by comparison of blank plasma from six different men to the corresponding spiked plasma sample at the level of LLOQ to investigate the potential interferences at the LC chromatographic conditions for ginsenoside analytes and IS. The signal-to-noise ratio (S/N) of the LLOQ sample was at least five times the response compared to the blank samples. Each calibration curve was constructed by plotting the peak area ratio (y) of the analyte to IS against the spiked concentrations (x) of each analyte. Linearity was assessed by weighted (1/x^2) least squares regression analysis. The LLOQ was defined as the lowest concentration on the calibration curve with an S/N ratio of 10, where the precision and accuracy bias were within ±20% by five replicate analyses. The intra- and interday precision and accuracy assessments were performed at four concentrations with five replicates on the same day and three consecutive days, respectively. The acceptance criterion recommended by the guideline of precision and the accuracy was ±15% of the nominal concentration. The recovery of the seven ginsenosides was determined at three QC levels with three replicates by comparing the peak areas of plasma extracts spiked with analytes before extraction with those of the postextraction spiked samples at the same concentration. The matrix effects were investigated by comparing the peak areas of the analytes dissolved in the pretreated blank plasma with the corresponding concentrations prepared in the reconstitution solution with three replicates. The stability of the analytes in human plasma was assessed by analyzing five replicates of plasma samples at low, medium, and high QC levels under four different conditions. Short-term stability was evaluated after the exposure of QC samples to room temperature for 19 h before processing and analysis. The freeze and thaw stability was tested after three repeated cycles of thawing at room temperature and freezing at approximately −70°C. The long-term stability was assessed after storage at approximately −70°C for 50 days. The post-preparative stability was examined after the exposure of processed samples at ambient temperature (stored in an HPLC autosampler) for 34 h.

On the set-up of data set [3]: method as in earlier work. Particulars: after oral Korean Red ginseng extract, ref 25 (Kim et al.); cited from earlier work.

Where two headings read alike, the source gives them in different places. A value given as a limit tells only on which side of the number the result lay.

For `CC(C)=CCCC(C)(OC1OC(CO)C(O)C(O)C1O)C1CCC2(C)C1C(O)CC1C3(C)CCC(O)C(C)(C)C3CCC12C` (stereo not drawn) [CK, compound K], the “detection in plasma at the initial time point (0 h) of the second treatment period” value (“detection in plasma” for short) in data set [1] (in vivo) is given as “did not detect”. Further, in data set [1] (male, human, in vivo), the “AUC(0–t) of CK, times higher than that of F2” value is recorded as more than 5.03 times and the “mean Tmax in the RG group relative to the BRG group (times lower)” value is reported as “approximately 1.71 times”. In addition, in data set [1] (male, human, in vivo, po), the “AUC(0–t) in the BRG group, times higher than in the RG group” value is given as more than 28.0 times; the “AUC(0–∞)” value is 3.72 ± 7.91 ng·h/mL; the “T 1/2” value amounted to 1.36 ± 2.61 h; the T max came to 4.77 ± 3.61 h. In data set [1] (male, human, in vivo, po), the area under the curve AUC(0-inf) (usually total exposure, with the tail of the curve extrapolated) is 457 ± 259 ng·h/mL; the half-life (usually the time needed for the level to fall by half in the phase considered) was 7.72 ± 4.66 h; the Tmax – broadly, the time from dosing to the highest level – is 8.15 ± 10.2 h. Also, in data set [2] (1.5 ng/mL), the “Freeze-thaw stability, concentration found” value (from here on “Freeze-thaw stability”) came out at 104.03 ± 7.57%; the “Short-term stability, concentration found” value (from here on “Short-term stability”) came to 99.90 ± 4.38%; the “Autosampler stability, concentration found” value (“Autosampler stability” for short) amounted to 101.24 ± 4.59%; the “Long-term stability, concentration found” value was 103.25 ± 4.03%. Moreover, in data set [2] (80 ng/mL), the “Freeze-thaw stability” value amounted to 96.17 ± 2.51%; the “Short-term stability” value is on record as 98.69 ± 2.03%; the “Autosampler stability” value came to 99.56 ± 1.44%; the “Long-term stability, concentration found” value is on record as 103.02 ± 5.53%. In data set [3], the Cmax – broadly, the peak of the concentration-time curve – is on record as 8.35 ± 1.97 ng/mL and the “half-life of CK compared with that of Rb1” value is given as “seven times shorter”.

Regarding `CC(C)=CCC[C@](C)(O[C@@H]1O[C@H](CO)[C@@H](O)[C@H](O)[C@H]1O)[C@H]1CC[C@]2(C)[C@@H]1[C@H](O)C[C@@H]1[C@@]3(C)CC[C@H](O[C@@H]4O[C@H](CO)[C@@H](O)[C@H](O)[C@H]4O)C(C)(C)[C@@H]3CC[C@]12C` [Ginsenoside F2, ginsenoside F2], in data set [1] (in vivo), the “detection in plasma” value is given as “did not detect”. Moreover, in data set [1] (male, human, in vivo, po, AUC(0–t)), the AUC(0-t) (in general, exposure summed from dosing to a finite time, without extrapolation to infinity) is 74.1 ± 33 ng·h/mL. Further, in data set [1] (male, human, in vivo, po), the area under the curve AUC(0-inf) was found to be 90.7 ± 43 ng·h/mL, the half-life is 9.77 ± 7.71 h and the time of peak concentration (Tmax) was found to be 6.62 ± 1.71 h. Moreover, in data set [1] (male, human, in vivo, po, C max), the peak level (Cmax) was 5.83 ± 2.35 ng/mL. In addition, in data set [2] (1.5 ng/mL), the “Freeze-thaw stability” value stood at 98.29 ± 4.06%; the “Short-term stability” value worked out at 99.21 ± 7.70%; the “Autosampler stability” value stood at 99.02 ± 8.01%; the “Long-term stability, concentration found” value amounted to 101.83 ± 3.76%. Besides, in data set [2] (80 ng/mL), the “Freeze-thaw stability” value came to 95.95 ± 1.10%; the “Short-term stability” value amounted to 96.53 ± 4.04%; the “Autosampler stability” value worked out at 96.29 ± 0.99%; the “Long-term stability, concentration found” value is on record as 99.02 ± 2.04%.

Consider `CC(C)=CCC[C@](C)(O)[C@H]1CC[C@]2(C)[C@@H]1[C@H](O)C[C@@H]1[C@@]3(C)CC[C@H](O[C@@H]4O[C@H](CO)[C@@H](O)[C@H](O)[C@H]4O[C@@H]4O[C@H](CO)[C@@H](O)[C@H](O)[C@H]4O)C(C)(C)[C@@H]3CC[C@]12C` [Rg3, ginsenoside Rg3], for which the “detection in plasma” value in data set [1] (in vivo) is recorded as “did not detect”. In data set [1] (male, human, in vivo, po), the “T 1/2” value is given as 5.70 ± 0.73^∗ h, the T max was determined as 4.23 ± 1.54 h, the half-life is 5.58 ± 3.63 h and the Tmax is 3.85 ± 1.28 h. In addition, in data set [2] (0.6 ng/mL), the “Freeze-thaw stability” value amounted to 97.73 ± 3.53%; the “Short-term stability” value is on record as 102.32 ± 2.68%; the “Autosampler stability” value turned out to be 102.95 ± 5.52%; the “Long-term stability, concentration found” value came out at 104.15 ± 8.68%. Further, in data set [2] (32 ng/mL), the “Freeze-thaw stability” value is given as 95.33 ± 2.75%; the “Short-term stability” value came out at 96.32 ± 1.48%; the “Autosampler stability” value came to 97.25 ± 1.45%; the “Long-term stability, concentration found” value was determined as 99.84 ± 3.12%.

For the compound `CC(C)=CCC[C@](C)(O[C@@H]1O[C@H](CO)[C@@H](O)[C@H](O)[C@H]1O)[C@H]1CC[C@]2(C)[C@@H]1[C@H](O)C[C@@H]1[C@@]3(C)CC[C@H](O)C(C)(C)[C@@H]3[C@@H](O[C@@H]3O[C@H](CO)[C@@H](O)[C@H](O)[C@H]3O)C[C@]12C` [Rg1, ginsenoside Rg1], the “detection in the plasma samples” value in data set [1] (after oral RG or BRG) was “not detected”.
